Assay results taken from patent publication US12503711B2, “Method of producing and processing diamines to a diamine free base using a carbonate intermediate and an engineered microorganism” (Genomatica, Inc., priority 2014, dated 2025).
Several values for one entry are separate records, joined by “and”; a condition that tells them apart may be missing. Identical values can stand only once. Like-named read-outs stand apart in the source and are kept apart here.

Columns and labels:
[1] = water solubility of the solvent used, cited from earlier work
[2] = Solvent extraction of HMD from aqueous feed (recovery, distribution coefficient, selectivity); type: physicochemical; details: for available free base HMD extracted: 1:1 solvent to feed ratio
Protocol: The example describes the solvent extraction of HMD from the CO2 stripped solution prepared in Example 3 above as well as extracting HMD from an aqueous solution without pH adjustment as a control for solvent performance. The following protocol was used in this example:
The pH of the aqueous feed was measured. In a 50 mL falcon tube, 20 g of solvent was mixed with 20 g of feed. This combination was further aggressively mixed in the falcon tube for 5 minutes and vortexed for 1 minute. The tube with the mixed solvent and feed was allowed to settle until phase separation was complete. The volume of the bottom, aqueous layer was recorded. A sample of the top layer was carefully pipetted out the top layer. A sample the bottom layer was also obtained and the pH of the bottom layer measured. The recovery, distribution coefficients and selectivity based on mass balance were calculated.
The extraction data for three solvents extracting HMD from water are set out in Table 4-1.

[3] = Simulated fermentation: CO2 and HMD fed into MM9 solution, pH monitored; type: physicochemical; details: average rate 3.31 g/L/hr
Text: This example reports the results of a simulated fermentation process. Briefly, CO2 (approximately 98% pure) and HMD (70% HMD from Sigma Aldrich) were fed into an MM9 solution that had the following composition: • 0.68% (6.8 g/L) Disodium phosphate Na2HPO4 • 0.3% (3 g/L) Monopotassium phosphate KH2PO4 • 0.15%(1.5 g/L) Ammonium chloride NH4Cl • 0.1% (1 g/L) Ammonium sulfate (NH4)2SO4 • 0.05% (0.5 g/L) Sodium chloride NaCl
The measured pH of the solution and concentration of HMD added over time are set out in FIG. 30.
This feed rate used in this example corresponds to an average rate of 3.31 g/L/hr (a reasonable production rate in an industrial fermentation process). The final titer and feed concentration of HMD was confirmed by LCMS. The HMD and CO2 reach a dynamic equilibrium around pH 8.5. As more HMD is added, more CO2 is absorbed. The simulated HMD:CO2 ratio is 1.95 for pH=8.53. […] FIGS. 31 and 32 illustrate the relative concentration of species as a function of pH for HMD and H2CO3, respectively.
At pH 8.5 (dashed, black line) the major species in solution are the diprotonated HMD and bicarbonate. A minority presence of HMD-carbamate may be present as well.

[4] = HMD/CO2 pH equilibrium under changing conditions (CO2 sparge, air sparge, heat); type: physicochemical; details: for pH (temp. in ° C.): 10% w/w aqueous HMD solution
Protocol: This experiment illustrates HMD/CO2 pH equilibrium under changing conditions. In this example, a 10% w/w aqueous HMD solution was prepared (70% HMD purchased from Sigma Aldrich). The HMD solution was heated to 30° C. and initial pH recorded. Next, CO2 (approximately 98% pure) was bubbled into the solution for 60 min while monitoring pH. The CO2 sparge was stopped. Air was sparged into solution for 30 min while monitoring pH. […] The pH was measured by sampling 3 mL to a falcon tube and cooling to 30° C. […] The solution was cooled to 30° C. and a final pH recorded. The measured pH values are plotted in Graphs 1-1, 1-2 and 1-3, below. It was noted that the temperature probe on pH meter was reading 44.4° C. at […]. and cooled back down to 30° C. by the end of the 60 min. […] This temperature increase can also account for the nonlinearity in FIG. 27-29 because pH decreases with increasing temperature.
Extraction should be possible at this pH. Aeration during fermentation may be able to strip off some of the dissolved CO2.

[5] = Regeneration of HMD free base from CO2-adjusted MM9 solution by air sparge and reflux; type: physicochemical; details: for CO2:HMD ratio: based on calculation from pH
Protocol: A 250 mL four-neck flask was fitted with a condenser, temperature probe, and air sparge needle. The system was open to air through the top of the condenser. The feed was an aqueous HMD solution in MM9 where pH was adjusted to 8.68 with CO2. The feed solution was analyzed for HMD concentration by LCMS and the pH was measured. The solution was sparged with air and refluxed at 85° C. for three hours. The resulting solution's pH was taken and the concentration of HMD measured by LCMS.
The concentration increased slightly as some water escaped through the condenser and the solution was concentrated. The fraction of HMD in free base form at pH 11.26 is 57%.

[6] = HMD in DI water, [HMD] = 835 mM, 20 g solvent : 20 g feed
[7] = HMD in DI water, [HMD] = 835 mM, bottom aqueous layer after extraction, 20 g solvent : 20 g feed
[8] = HMD in deionized (DI) water, [HMD] = 835 mM, aqueous feed before extraction

Structure (SMILES): CC(C)CCO [Isopentanol]
- % Solubility ([1]; Table 4-1): 2.8%
- % water in extract [2, 6]: 9.08%
- pH after [2, 7]: 12.16
- pH before [2, 8]: 12.70

Structure (SMILES): NCCCCCCN [HMD, Hexamethylenediamine]
- pH of dynamic equilibrium of HMD and CO2 [3]: ~8.5
- pH restored by air and heat ([4]; 10% w/w aqueous HMD solution after 60 min CO2 bubbling, then air sparge and heating to 80-88° C, pH read at 30° C): 11.02
- pH (temp. in ° C.) ([4]; Heated to 80° C. for 30 min. w/ sparge, sample cooled to 30 °C): 10.49
- pH (temp. in ° C.) ([4]; Heated to 88° C. for 15 min. w/ sparge, pH at 22.5 °C): 11.02
- pH (temp. in ° C.) ([4]; Heated to 88° C. for 15 min. w/ sparge, pH at 30 °C): 10.76
- pH (temp. in ° C.) ([4]; House air sparge for 30 min. at 30° C., pH at 30 °C): 8.23
- pH (temp. in ° C.) ([4]; Initial conditions, pH at 30 °C): 12.25
- pH (temp. in ° C.) ([4]; Sat open to air over night, pH at 20.6 °C): 10.78
- pH (temp. in ° C.) ([4]; Sparge CO2 for 60 min. at 30° C., pH at 30 °C): 7.96
- available free base HMD extracted ([2]; solvent 1-hexanol): approximately 43%
- available free base HMD extracted ([2]; solvent hexane): about 7%
- free base HMD available, based on the pH before extraction ([2]; stripped solution from Example 3): 60%
- pH ([5]; Feed stream: HMD in MM9, pH adjusted with CO2, @ 21.7° C.): 8.68 @
- CO2:HMD ratio ([5]; Feed stream): 1.91
- pH ([5]; Product stream after air sparge and reflux at 85° C. for three hours, @ 23.5° C.): 11.26 @
- CO2:HMD ratio ([5]; Product stream): 0.277
- fraction of HMD in free base form ([5]; at pH 11.26): 57%
- pH after CO2 stripping ([5]; feed pH 8.68 in MM9, air sparge, reflux at 85° C for three hours): 11.26

Structure (SMILES): CCCCCCO [1-hexanol]
- % Solubility ([1]; Table 4-1): 0.59%
- % Solubility ([1]; Table 4-2): 0.59%

Structure (SMILES): OC1CCCCC1 [Cyclohexanol]
- % water in extract [2, 6]: 16.65%
- pH after [2, 7]: 12.36
- pH before [2, 8]: 12.70

Structure (SMILES): CCCCCC [Hexane]
- % Solubility ([1]; Table 4-1): 9.4 × 10^−4%
- % water in extract [2]: <0.001%
- pH after [2]: 12.54 and 11.42
- pH before [2]: 12.55 and 11.48
